The values that follow come from PubChem BioAssay AID1996.

≈ marks a conversion by molar mass, not a printed value.

The conditions of this series: buffer; pH 7.4; 200.0 µM.
The kinetic solubility is solubility judged after dilution from a stock solution rather than from solid. In turn, `CCCN1CCN(S(=O)(=O)c2ccc3c(c2)OCCO3)CC1` came in with a kinetic solubility greater than 49 µg/mL.

In turn, `COc1ccccc1C(C[N+](=O)[O-])c1c(N)n(C)c(=O)n(C)c1=O` (stereo not given) yielded a solubility (kinetic) greater than 50.1 µg/mL. In turn, `Cc1ccc(-n2c(C)c([N+](=O)[O-])c3ccc(O)cc32)cc1` displayed a kinetic solubility of 0.4 µg/mL (≈ 1.42 µM).

For `CC(Nc1ccccc1)c1cccnc1` (stereo not given), the kinetic solubility was greater than 29.7 µg/mL. The value for `O=C(NCCNC1CCC(c2ccccc2)CC1)c1ccc(F)cc1` (stereo not given) was 35.4 µg/mL (≈ 104 µM); that for `CC(C)CCC1(C)NC(=O)N(CC(=O)NCC(=O)Nc2ccc(F)c(F)c2F)C1=O` (stereo not given) was greater than 64.3 µg/mL; that for `CCC(C)CCCCNC1=NCCS1` (stereo not given) was greater than 32.2 µg/mL.

For `CC1CCCCN1S(=O)(=O)Cc1ccccc1Cl` (stereo not given), the solubility (kinetic) was greater than 43.2 µg/mL. With `O=C(Nc1ccncc1)c1ccc(Br)cc1`, the solubility (kinetic) was greater than 41.6 µg/mL.

For `COc1ccc(NC(=S)N2CCC(Cc3ccccc3)CC2)cc1OC`, the solubility (kinetic) is 2.4 µg/mL (≈ 6.48 µM). To `O=C(CN1C(=O)NC2(CCCCCCC2)C1=O)NCc1ccccc1` belongs 47.7 µg/mL (≈ 139 µM).

For `O=C(Nc1ccc(F)cc1)Nc1ccccc1N1CCCCC1`, the kinetic solubility amounted to 0.3 µg/mL (≈ 0.957 µM).

As for `COC(=O)c1ccc(S(=O)(=O)NCc2ccccc2)n1C`, the solubility (kinetic) was greater than 46.3 µg/mL. `Cc1ccc(/C(N)=N/OC(=O)CCCc2ccccc2)cc1` yielded a solubility (kinetic) of 2 µg/mL (≈ 6.75 µM). To `COc1ccc(-c2nc3ccccc3o2)cc1OC` belongs less than 0.5 µg/mL; to `Cc1ccc(NC(=O)C2COc3ccccc3O2)cc1` (stereo not given), 13.3 µg/mL (≈ 49.4 µM).

Compound `CCOC(=O)C(C)Oc1ccc(NC(=O)C(Cl)Cl)cc1` (stereo not given) returned a solubility (kinetic) greater than 48 µg/mL.

Take `COc1ccc(C)cc1C(=O)CCC(=O)NC1CCCCC1`: the kinetic solubility was found to be 21.2 µg/mL (≈ 69.9 µM).

As to `OCCOCCOc1cccc2[nH]ccc12`, the kinetic solubility is 25.9 µg/mL (≈ 117 µM). Regarding `COc1ccccc1NC(=S)NCc1ccc(Cl)cc1`, the kinetic solubility was 33 µg/mL (≈ 108 µM).

`CN(c1ccc(OCC(=O)Nc2ccccc2C(=O)O)cc1)S(=O)(=O)c1ccc(Cl)cc1`: the solubility (kinetic) is greater than 71.2 µg/mL.

Consider `CSc1ccccc1C(=O)N1CCc2ccccc2C1`, for which the solubility (kinetic) is greater than 42.5 µg/mL. The value for `Cc1ccc(C(=O)NNC(=O)c2ccncc2)cc1[N+](=O)[O-]` was greater than 45 µg/mL; that for `O/C=c1\ccc2cccc3nc(C(F)(F)F)nc1c23` was 5.5 µg/mL (≈ 20.8 µM); that for `Cc1ccc(CC2CC(=O)N(c3cc(C)ccc3C)C2=O)cc1` (stereo not given) was 33.9 µg/mL (≈ 110 µM). The value for `CC(=O)/C(C=Nc1noc(C)c1Br)=C(\C)O` was 37.6 µg/mL (≈ 131 µM). To `O=C(COC(=O)c1cccc(Br)c1)NCc1ccco1` belongs 19 µg/mL (≈ 56.2 µM); to `COc1cccc(NC(=S)N2CCN(S(C)(=O)=O)CC2)c1`, greater than 49.4 µg/mL; to `CCC(C)NC(=O)N1c2ccccc2Sc2ccccc21` (stereo not given), 28 µg/mL (≈ 93.8 µM). In turn, `COc1ccc(N=C(C)c2c(O)[nH]c(=O)[nH]c2=O)cc1` gave a solubility (kinetic) of 5 µg/mL (≈ 18.2 µM). In the case of `CC(=O)Nc1c(O)c2cccc3c2n(c1=O)CCC3`, the solubility (kinetic) came to 36.5 µg/mL (≈ 141 µM). To `COc1ccc(NC2SC(=O)N(C)C2=O)cc1` (stereo not given) belongs 37.6 µg/mL (≈ 149 µM); to `N#Cc1ccccc1NC(=O)CN1CCN(Cc2ccccc2)CC1`, greater than 50.2 µg/mL. The value for `COc1ccc(/C=C2\C(=O)NC(=S)N(C)C2=O)cc1C` was greater than 43.6 µg/mL; that for `N#Cc1c(NC(=O)c2ccco2)sc2c1CCC2` was 9.4 µg/mL (≈ 36.4 µM); that for `Nc1nc2c(s1)COc1ccccc1-2` was greater than 30.6 µg/mL. Turning to `CCOC(=O)N1CCN(C/C(Cl)=C/c2ccccc2)CC1`, the kinetic solubility worked out at 29.8 µg/mL (≈ 96.5 µM). For the compound `CCc1nc2cccnc2n1-c1ccc(C(=O)O)cc1`, the kinetic solubility was greater than 40.1 µg/mL. The compound `Cc1cccc(N2N=C(C(=O)O)CCC2=O)c1` gave a solubility (kinetic) greater than 34.8 µg/mL. The value for `c1ccc(-c2nccnc2-c2ccccc2)cc1` was 21.5 µg/mL (≈ 92.6 µM); that for `C(#Cc1ccccc1)CN1CCCCC1.Cl` was 25.6 µg/mL; that for `O=C(COC(=O)Cc1ccc(F)cc1)NC1CCCCC1` was greater than 44 µg/mL. The value for `O=C(Nc1ccc(CN2CCOCC2)cc1)c1ccc(Cl)cc1Cl` was 19.9 µg/mL (≈ 54.5 µM); that for `CCOC(=O)C(C(=O)N(C)Cc1ccccc1)C1CCCCC1` (stereo not given) was 41.8 µg/mL (≈ 132 µM); that for `O=C(NC1CCS(=O)(=O)C1)c1cccnc1` (stereo not given) was 26.1 µg/mL (≈ 109 µM). To `Cc1ccc(N2C(=O)CCC2=O)c(C)c1` belongs 28 µg/mL (≈ 138 µM); to `COc1ccc(C(=O)COC(=O)c2ccc(Cl)nc2)cc1OC`, 10.3 µg/mL (≈ 30.7 µM). For `CC(C)OC(=O)/C(=C\c1ccccc1)NC(=O)c1ccccc1`, the kinetic solubility was greater than 46.4 µg/mL. The value for `O=C(COC(=O)c1cc(=O)[nH]c2ccccc12)Nc1ccc(F)cc1` was 15.4 µg/mL (≈ 45.3 µM); that for `CCOC(=O)c1sc(SC)nc1N` was 22.2 µg/mL (≈ 102 µM); that for `COc1ccc2nc(S(=O)Cc3ncc(C)c(OC)c3C)[nH]c2c1` (stereo not given) was 35.4 µg/mL (≈ 102 µM). In the case of `CC(C)(C)c1ccc(S(=O)(=O)Nc2noc3ccccc23)cc1`, the kinetic solubility is greater than 49.6 µg/mL.

`O=C(Nc1ccc2c(c1)OCCO2)C1CC(O)CN1C(=O)Nc1ccccc1` (stereo not given) had a solubility (kinetic) greater than 57.5 µg/mL.

For `CCc1ccc(/C=C2/C(=O)NC(=O)N2C(C)=O)cc1`, the solubility (kinetic) was determined as 18.6 µg/mL (≈ 72 µM). Compound `Cc1ccc(C2NC(=NCc3ccccc3)Nc3nc(C)cc(=O)n32)cc1` (stereo not given) showed a solubility (kinetic) of 13.1 µg/mL (≈ 36.4 µM).

Turning to `Cc1ccc(S(=O)(=O)N2CCN(C(=O)N(C)C)CC2)cc1`, the solubility (kinetic) was greater than 46.7 µg/mL. To `NC(=O)NC(=O)COC(=O)c1cccnc1Nc1ccccc1F` belongs 4.6 µg/mL (≈ 13.8 µM).

Consider `Cc1cc(C)c(S(=O)(=O)c2ccc(F)cc2C)c(Cl)n1`, for which the kinetic solubility was 36.8 µg/mL (≈ 117 µM). `NC(=O)c1ccc(NC(=O)CSC(=O)c2ccccc2)cc1` displayed a solubility (kinetic) of 16.4 µg/mL (≈ 52.2 µM). `Cc1cnc(C(=O)OCC(=O)c2ccc(F)cc2)cn1` displayed a solubility (kinetic) greater than 41.1 µg/mL. As for `CC(C(O)c1ccc(O)cc1)N1CCC(Cc2ccccc2)CC1.O=C(O)C(O)C(O)C(=O)O` (stereo not given), the solubility (kinetic) was greater than 71.3 µg/mL. The value for `Cc1[nH]c(=S)c(C#N)c(-c2ccco2)c1C(=O)N(C)C` was greater than 43.1 µg/mL; that for `O=C(Nc1cccc(F)c1)Nc1ccc2c(c1)CCC2` was less than 0.3 µg/mL. The compound `COc1ccc(CCNCc2ccc(C)s2)cc1OC.Cl` had a kinetic solubility greater than 49.2 µg/mL.

In turn, `C[C@H](NC(=O)c1ccccc1)C(=O)N1CCN(Cc2ccc3c(c2)OCO3)CC1` returned a kinetic solubility greater than 59.3 µg/mL. To `O=C(CCCN1CC=C(n2c(=O)[nH]c3ccccc32)CC1)c1ccc(F)cc1` belongs 33.4 µg/mL (≈ 88 µM). For the compound `O=C1CSCC(=O)N1Cc1ccc(Cl)c(Cl)c1`, the solubility (kinetic) was 43.2 µg/mL (≈ 149 µM). In the case of `NS(=O)(=O)c1ccc(CCNC(=O)COC(=O)CCc2c[nH]c3ccccc23)cc1`, the kinetic solubility is greater than 64.4 µg/mL.

In the case of `COc1cc(NC(=O)Nc2cc(C)on2)cc(OC)c1OC`, the solubility (kinetic) is 37.8 µg/mL (≈ 123 µM). The value for `Cc1cccc(NC(=O)CSc2cccc3cccnc23)c1` was 21.3 µg/mL (≈ 69.1 µM); that for `Br.Fc1cc(Cl)ccc1NC1=NCCCCC1` was greater than 48.2 µg/mL. To `Cc1cccc(OCC(=O)Nc2ccc3nc(C)sc3c2)c1` belongs 1.8 µg/mL (≈ 5.76 µM); to `O=C(c1ccc(F)cc1)N1CCC(C(=O)N2CCN(c3ncccn3)CC2)CC1`, 59.2 µg/mL (≈ 149 µM).

Consider `CCN(CC)CC(O)Cn1c(-c2cccc(Cl)c2)nc2cc(C)c(C)cc21` (stereo not given), for which the solubility (kinetic) is 53.4 µg/mL (≈ 138 µM). To `CC1=C(C(=O)OCc2ccccc2)C(c2cccc(F)c2)NC(=O)N1` (stereo not given) belongs 2.5 µg/mL (≈ 7.35 µM); to `CC(=O)N=c1c(C#N)cc2c(=O)n3cccc(C)c3nc2n1Cc1ccco1`, 5.1 µg/mL (≈ 13.7 µM). Take `COc1ccc(-c2nc(-c3cccnc3)no2)cc1`: the solubility (kinetic) was 2.1 µg/mL (≈ 8.29 µM). In the case of `CN1C=C/C(=C\c2cc[n+](C)c3ccccc23)c2ccccc21.[I-]`, the kinetic solubility was found to be 40.1 µg/mL. To `CCC(Oc1ccccc1)C(=O)NC1CCSC1=O` (stereo not given) belongs greater than 41.9 µg/mL; to `CSc1nc2ccccc2c(=O)n1-c1cccnc1`, 34.8 µg/mL (≈ 129 µM); to `COC(=O)Cn1c2ccc(C)cc2c2nc3ccccc3nc21`, less than 0.2 µg/mL. The value for `CNC(=O)CC1C(=O)N(C)C(=S)N1NC(=O)c1ccccc1` (stereo not given) was greater than 48.1 µg/mL; that for `Cc1cc(SCc2cccc(Cl)c2)nc(=O)[nH]1` was 39.9 µg/mL (≈ 150 µM). `CCOc1ccc(NC(C)=O)cc1[N+](=O)[O-]` registered a solubility (kinetic) greater than 33.6 µg/mL.

In the case of `Cc1ccc(N2C(=O)C(Cl)=C(N3CCCCCC3)C2=O)c(C)c1`, the kinetic solubility worked out at 4.5 µg/mL (≈ 13.5 µM). The compound `C=CCn1c(C)c(C(=O)OCC)c2cc(O)c3ccccc3c21` registered a kinetic solubility of less than 0.7 µg/mL. `CN(C)S(=O)(=O)c1cccc(COC(=O)c2cnccn2)c1`: the solubility (kinetic) was determined as 41.7 µg/mL (≈ 130 µM).

`CN(CC(=O)Nc1cccc(F)c1)C(=O)CC1CCCCC1` registered a solubility (kinetic) of 21.1 µg/mL (≈ 68.9 µM).

Compound `COC(=O)c1cc(S(=O)(=O)N2CCCC(C)C2)cn1C` (stereo not given) had a kinetic solubility of 43.2 µg/mL (≈ 144 µM). In turn, `CSc1nc(N(C)C)nc(N(C)C#N)n1` displayed a kinetic solubility greater than 33.6 µg/mL. `Cc1ccc2c(CN3CCCCC3CCO)cc(=O)oc2c1` (stereo not given) had a solubility (kinetic) of 39.4 µg/mL (≈ 131 µM). To `CC(=O)/C=C\c1ccc(OC(=O)c2cccnc2)cc1` belongs 39.6 µg/mL (≈ 148 µM); to `CCCCNC(=O)C(=O)Nc1cc2c3c(c1)CCC(=O)N3CCC2`, 1.5 µg/mL (≈ 4.55 µM). The compound `CC(=O)N1CCN(S(=O)(=O)c2ccc(F)c(Cl)c2)CC1` displayed a kinetic solubility greater than 48.1 µg/mL. To `O=C(NCc1ccccc1)c1nccnc1CO` belongs greater than 36.5 µg/mL. The compound `C=CCn1c(NC(=O)c2ccccc2)nc2ccccc21` displayed a kinetic solubility of 0.8 µg/mL (≈ 2.88 µM).

As for `Cc1ccccc1Nc1nc(N)nc(CSc2n[nH]c(N)n2)n1`, the kinetic solubility is greater than 49.4 µg/mL. In turn, `CC(=O)c1cccc(NC(=O)CCC(=O)c2ccc(F)cc2)c1` registered a kinetic solubility of 3.8 µg/mL (≈ 12.1 µM). The value for `COc1ccccc1NC(=O)C(=O)N1CCCC1` was 35.3 µg/mL (≈ 142 µM); that for `Cc1cccc(N2CCN(C(=O)CCc3nc4ccccc4c(=O)[nH]3)CC2)c1C` was 2 µg/mL (≈ 5.12 µM); that for `O=C(COC(=O)c1cccnc1Cl)NC1CCCCC1` was greater than 44.5 µg/mL. The value for `Cl.O=C(O)c1ccc(Nc2ncnc3ccccc23)cc1` was greater than 45.3 µg/mL; that for `O=C1CS/C(=N/N=C/c2ccncc2)N1` was greater than 33 µg/mL; that for `Cc1nonc1OCCN1CCN(c2ccc([N+](=O)[O-])cc2)CC1` was 42.6 µg/mL (≈ 128 µM). To `COC(=O)CSc1ncnc2c(C)csc12` belongs 29.9 µg/mL (≈ 118 µM).
